# Laboratory results published in patent US12441762B2, “Hepatitis c virus NS3/4A protease inhibitors” (priority 2019, dated 2025).
# Assays:
# Test in all cases: biochemical
# HCV NS3/4A protease GT3 = HCV NS3/4A protease GT3 (Hepatitis C virus genotype 3a, UniProt Q81495)
# [1] = test system: HCV NS3/4A protease D168A variant; assay type: biochemical, Hepatitis C virus; settings: for Fold Change of D168A Ki with respect to GT1a wild-type: Table S1, value in parentheses
# Method: (§1) The HCV GT1a NS3/4A protease gene described in the Bristol Myers Squibb patent was synthesized by GenScript and cloned into a PET28a expression vector. Cys159 was mutated to a serine residue to prevent disulfide bond formation and facilitate crystallization. The D168A gene was engineered using the site-directed mutagenesis protocol from Stratagene. Protein expression and purification were carried out as previously described.
# (§2) Km constants for GT1 and D168A protease were previously determined. […] Inner filter effect corrections were applied to the initial velocities (Vo) at each substrate concentration. Vo versus substrate concentration graphs were globally fit to the Michaelis-Menten equation to obtain the Km value.
# (§3) For each assay, 2 nM of NS3/4A protease (GT1a and D168A) was pre-incubated at room temperature for 1 h with increasing concentration of inhibitors in assay buffer (50 mM Tris, 5% glycerol, 10 mM DTT, 0.6 mM LDAO, and 4% dimethyl sulfoxide, pH 7.5). Inhibition assays were performed in non-binding surface 96-well black half-area plates (Corning) in a reaction volume of 60 μL. […] Three independent data sets were collected for each inhibitor with each protease construct.
# [2] = target: T1, HCV NS3/4A protease D168A variant (Hepatitis C virus genotype 1a, UniProt P27958, C1185S/D1194A); assay type: biochemical
# T1 construct: His-tag (cleaved yes); made in house; host or cells: Escherichia coli BL21(DE3), PET28a vector
# Method: as §1, §2, §3
# [3] = target: T2, wild-type HCV NS3/4A protease (GT1a) (Hepatitis C virus genotype 1a, UniProt P27958, C1185S); assay type: biochemical
# T2 construct: His-tag (cleaved yes); made in house; host or cells: Escherichia coli BL21(DE3), PET28a vector
# Method: as §1, §2, §3
# T2 sequence (P27958 1027-1208 C1185S): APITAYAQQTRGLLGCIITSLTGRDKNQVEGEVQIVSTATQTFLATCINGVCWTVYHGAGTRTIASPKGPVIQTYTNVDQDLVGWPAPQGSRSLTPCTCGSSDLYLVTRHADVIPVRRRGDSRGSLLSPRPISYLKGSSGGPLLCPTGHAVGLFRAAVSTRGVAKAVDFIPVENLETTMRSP
# T1 sequence (P27958 1027-1208 C1185S/D1194A): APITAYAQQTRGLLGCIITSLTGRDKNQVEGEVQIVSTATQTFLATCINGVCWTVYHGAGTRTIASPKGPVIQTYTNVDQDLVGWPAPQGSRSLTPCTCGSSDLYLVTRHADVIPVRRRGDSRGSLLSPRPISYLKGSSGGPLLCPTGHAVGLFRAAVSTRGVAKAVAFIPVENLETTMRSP
# Chain of HCV NS3/4A protease GT3 (Q81495 1033-1214): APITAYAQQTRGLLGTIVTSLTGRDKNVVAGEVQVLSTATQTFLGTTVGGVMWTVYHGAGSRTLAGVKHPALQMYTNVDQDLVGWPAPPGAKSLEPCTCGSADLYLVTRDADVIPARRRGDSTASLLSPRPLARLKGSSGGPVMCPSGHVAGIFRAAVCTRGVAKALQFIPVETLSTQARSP
# Chain of HCV NS3/4A protease GT3 (Q81495 1664-1717): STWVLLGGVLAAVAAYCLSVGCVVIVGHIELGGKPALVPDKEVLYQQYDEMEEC
Structure (SMILES),Ki (HCV NS3/4A protease GT3) [µM],Fold Change of D168A Ki with respect to GT1a wild-type [1],Ki [2] [µM],Ki [3] [µM],fold less potent than the methyl carbamate analog P4P5-3B ([1]; acetamide (3A) vs methyl carbamate (3B)) [fold],fold loss in potency against D168A relative to WT [1] [fold],fold more potent than grazoprevir towards D168A ([2]; compared to grazoprevir) [fold],fold increase in potency against D168A compared to the parent compound [2] [fold],fold increase in potency towards WT compared to the parent compound ([3]; compared to parent compound) [fold]
"COc1ccc2nc(C(F)(F)F)c(O[C@@H]3C[C@H]4C(=O)N[C@]5(C(=O)NS(=O)(=O)C6(C)CC6)C[C@H]5/C=C\CCCCC[C@H](NC(=O)O[C@@H]5C[C@@H]6C[C@@H]6C5)C(=O)N4C3)nc2c1 [NR04-49, (1R,3R,5S)-Bicyclo[3.1.0]hexan-3-yl ((2R,6S,13aS,14aR,16aS,Z)-2-((7-methoxy-3-(trifluoromethyl)quinoxalin-2-yl)oxy)-14a-(((1-methylcyclopropyl)sulfonyl)carbamoyl)-5,16-dioxo-1,2,3,5,6,7,8,9,10,11,13a,14,14a,15,16,16a-hexadecahydrocyclopropa[e]pyrrolo[1,2-a][1,4]diazacyclopentadecin-6-yl)carbamate]",0.17 ± 0.013,–,–,–,–,–,–,–,–
"COc1ccc2nc(C)c(O[C@@H]3C[C@H]4C(=O)N[C@]5(C(=O)NS(=O)(=O)C6(C)CC6)C[C@H]5/C=C\CCCCC[C@H](NC(=O)[C@@H](NC(C)=O)C(C)(C)C)C(=O)N4C3)nc2c1 [Inhibitor P4P5-2A, (2R,6S,13aS,14aR,16aS,Z)-6-((S)-2-Acetamido-3,3-dimethylbutanamido)-2-((7-methoxy-3-methylquinoxalin-2-yl)oxy)-N-((1-methylcyclopropyl)sulfonyl)-5,16-dioxo-1,2,3,6,7,8,9,10,11,13a,14,15,16,16a-tetradecahydrocyclopropa[e]pyrrolo[1,2-a][1,4]diazacyclopentadecine-14a(5H)-carboxamide]",–,(9) fold,0.215 ± 0.016,0.0239 ± 0.0017,–,–,–,–,–
"COc1ccc2nc(C)c(O[C@@H]3C[C@H]4C(=O)N[C@]5(C(=O)NS(=O)(=O)C6(C)CC6)C[C@H]5/C=C\CCCCC[C@H](NC(=O)[C@@H](NC(C)=O)C(C)C)C(=O)N4C3)nc2c1 [Inhibitor P4P5-1A, (2R,6S,13aS,14aR,16aS,Z)-6-((S)-2-Acetamido-3-methylbutanamido)-2-((7-methoxy-3-methylquinoxalin-2-yl)oxy)-N-((1-methylcyclopropyl)sulfonyl)-5,16-dioxo-1,2,3,6,7,8,9,10,11,13a,14,15,16,16a-tetradecahydrocyclopropa[e]pyrrolo[1,2-a][1,4]diazacyclopentadecine-14a(5H)-carboxamide]",–,(13) fold,0.141 ± 0.018,0.0111 ± 0.0005,–,–,–,–,–
"COC(=O)N[C@H](C(=O)N[C@H]1CCCCC/C=C\[C@@H]2C[C@@]2(C(=O)NS(=O)(=O)C2(C)CC2)NC(=O)[C@@H]2C[C@@H](Oc3nc4cc(OC)ccc4nc3C)CN2C1=O)C(C)(C)C [Inhibitor P4P5-2B, Methyl ((S)-1-(((2R,6S,13aS,14aR,16aS,Z)-2-((7-methoxy-3-methylquinoxalin-2-yl)oxy)-14a-(((1-methylcyclopropyl)sulfonyl)carbamoyl)-5,16-dioxo-1,2,3,5,6,7,8,9,10,11,13a,14,14a,15,16,16a-hexadecahydrocyclopropa[e]pyrrolo[1,2-a][1,4]diazacyclopentadecin-6-yl)amino)-3,3-dimethyl-1-oxobutan-2-yl)carbamate]",–,(8) fold,0.201 ± 0.015,0.0295 ± 0.0019,–,–,–,–,–
"COc1ccc2nc(C)c(O[C@@H]3C[C@H]4C(=O)N[C@]5(C(=O)NS(=O)(=O)C6(C)CC6)C[C@H]5/C=C\CCCCC[C@H](NC(=O)[C@@H](NC(C)=O)C5CCCC5)C(=O)N4C3)nc2c1 [Inhibitor P4P5-3A, (2R,6S,13aS,14aR,16aS, Z)-6-((S)-2-acetamido-2-cyclopentylacetamido)-2-((7-methoxy-3-methylquinoxalin-2-yl)oxy)-N-((1-methylcyclopropyl)sulfonyl)-5,16-dioxo-1,2,3,6,7,8,9,10,11,13a,14,15,16,16a-tetradecahydrocyclopropa[e]pyrrolo[1,2-a][1,4]diazacyclopentadecine-14a(5H)-carboxamide]",–,(39) fold,0.0873,0.00223 ± 7e-05,~3,–,–,–,–
"COC(=O)N[C@H](C(=O)N[C@H]1CCCCC/C=C\[C@@H]2C[C@@]2(C(=O)NS(=O)(=O)C2(C)CC2)NC(=O)[C@@H]2C[C@@H](Oc3nc4cc(OC)ccc4nc3C)CN2C1=O)C(C)C [Inhibitor P4P5-1B, Methyl ((S)-1-(((2R,6S,13aS,14aR,16aS,Z)-2-((7-methoxy-3-methylquinoxalin-2-yl)oxy)-14a-(((1-methylcyclopropyl)sulfonyl)carbamoyl)-5,16-dioxo-1,2,3,5,6,7,8,9,10,11,13a,14,14a,15,16,16a-hexadecahydrocyclopropa[e]pyrrolo[1,2-a][1,4]diazacyclopentadecin-6-yl)amino)-3-methyl-1-oxobutan-2-yl)carbamate]",–,(8) fold,0.102 ± 0.0068,0.013 ± 0.0008,–,–,–,–,–
"COC(=O)NC1(C(=O)N[C@H]2CCCCC/C=C\[C@@H]3C[C@@]3(C(=O)NS(=O)(=O)C3(C)CC3)NC(=O)[C@@H]3C[C@@H](Oc4nc5cc(OC)ccc5nc4C)CN3C2=O)CCCC1 [Inhibitor P4P5-5, Methyl (1-(((2R,6S,13aS,14aR,16aS,Z)-2-((7-methoxy-3-methylquinoxalin-2-yl)oxy)-14a-(((1-methylcyclopropyl)sulfonyl)carbamoyl)-5,16-dioxo-1,2,3,5,6,7,8,9,10,11,13a,14,14a,15,16,16a-hexadecahydrocyclopropa[e]pyrrolo[1,2-a][1,4]diazacyclopentadecin-6-yl)carbamoyl)cyclopentyl)carbamate]",–,(30) fold,0.931 ± 0.07,0.031 ± 0.00274,–,30,–,–,–
"COC(=O)N[C@H](C(=O)N[C@H]1CCCCC/C=C\[C@@H]2C[C@@]2(C(=O)NS(=O)(=O)C2(C)CC2)NC(=O)[C@@H]2C[C@@H](Oc3nc4cc(OC)ccc4nc3C)CN2C1=O)C1CCCCC1 [Inhibitor P4P5-6, Methyl ((S)-1-cyclohexyl-2-(((2R,6S,13aS,14aR,16aS,Z)-2-((7-methoxy-3-methylquinoxalin-2-yl)oxy)-14a-(((1-methylcyclopropyl)sulfonyl)carbamoyl)-5,16-dioxo-1,2,3,5,6,7,8,9,10,11,13a,14,14a,15,16,16a-hexadecahydrocyclopropa[e]pyrrolo[1,2-a][1,4]diazacyclopentadecin-6-yl)amino)-2-oxoethyl)carbamate]",–,(11) fold,0.00968 ± 0.00064,0.00091 ± 0.00038,–,–,5,–,–
"CCC1(OC(=O)N[C@H]2CCCCC/C=C\[C@@H]3C[C@@]3(C(=O)NS(=O)(=O)C3(C)CC3)NC(=O)[C@@H]3C[C@@H](Oc4nc5cc(OC)ccc5nc4C)CN3C2=O)CCCC1 [NR01-97, 1-Ethylcyclopentyl ((2R,6S,13aS,14aR,16aS, Z)-2-((7-methoxy-3-methylquinoxalin-2-yl)oxy)-14a-(((1-methylcyclopropyl)sulfonyl)carbamoyl)-5,16-dioxo-1,2,3,5,6,7,8,9,10,11,13a,14,14a,15,16,16a-hexadecahydrocyclopropa[e]pyrrolo[1,2-a][1,4]diazacyclopentadecin-6-yl) carbamate]",–,(17) fold,0.0217 ± 0.0023,0.00129 ± 5e-05,–,–,–,~3,–
"COc1ccc2nc(C)c(O[C@@H]3C[C@H]4C(=O)N[C@]5(C(=O)NS(=O)(=O)C6(C)CC6)C[C@H]5/C=C\CCCCC[C@H](NC(=O)OC5(C)CC5)C(=O)N4C3)nc2c1 [NR02-24, 1-Methylcyclopropyl ((2R,6S,13aS,14aR,16aS,Z)-2-((7-methoxy-3-methylquinoxalin-2-yl)oxy)-14a-(((1-methylcyclopropyl)sulfonyl)carbamoyl)-5,16-dioxo-1,2,3,5,6,7,8,9,10,11,13a,14,14a,15,16,16a-hexadecahydrocyclopropa[e]pyrrolo [1,2-a][1,4]diazacyclopentadecin-6-yl)carbamate]",–,(6) fold,0.0279 ± 0.0041,0.00444 ± 0.0003,–,–,–,~2,–
"COc1ccc2nc(C)c(O[C@@H]3C[C@H]4C(=O)N[C@]5(C(=O)NS(=O)(=O)C6(C)CC6)C[C@H]5/C=C\CCCCC[C@H](NC(=O)OC5(C)CCC5)C(=O)N4C3)nc2c1 [NR02-61, 1-Methylcyclobutyl ((2R,6S,13aS,14aR,16aS,Z)-2-((7-methoxy-3-methylquinoxalin-2-yl)oxy)-14a-(((1-methylcyclopropyl)sulfonyl)carbamoyl)-5,16-dioxo-1,2,3,5,6,7,8,9,10,11,13a,14,14a,15,16,16a-hexadecahydrocyclopropa[e]pyrrolo [1,2-a][1,4]diazacyclopentadecin-6-yl)carbamate]",–,(33) fold,0.0464 ± 0.0034,0.0014 ± 0.00013,–,–,–,–,4
